Test results: US20230089867A1, “CYCLIC PENTAMER COMPOUNDS AS PROPROTEIN CONVERTASE SUBTILISIN/KEXIN TYPE 9 (PCSK9) INHIBITORS FOR THE TREATMENT OF METABOLIC DISORDER” (Novartis AG, priority 2018, published 2023)
pIC50: −log10 of the molar value.

Assays:
[1] = from (3R)-3-benzyl-4-((3-((S)-3-((S)-2-((S)-2-((4-chloro-2-(4-(2-((dimethylamino)methyl)-1-methyl-1H-imidazol-5-yl)phenoxy)benzyl)amino)propanamido)-3-methoxy-N-methylpropanamido)-4-(4-chloro phenyl)butanamido)tetrahydro-2H-pyran-4-yl)(methyl)amino)-4-oxobutanoic acid; amide bond; 18-membered ring; HATU/HOAt/2,6-lutidine; DCM; 45.0 °C
human PCSK9 = human PCSK9 (Homo sapiens, UniProt Q8NBP7); test: PCSK9 ligand binding TR-FRET assay (interference with binding of human PCSK9 to human LDLR); conditions: for Max % inhibition: PCSK9 FRET assay, efficacy (Amax), 100% = 1 uM unlabeled human PCSK9, 0% = DMSO; for pIC50: TR-FRET, human PCSK9 Alexa Fluor 647 / human LDLR extracellular domain-Europium Kryptate, read-out: PCSK9 FRET Assay IC50
How it was run: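 Threefold compound dilutions were pre-incubated 30 min with PCSK9, after which 4 nM Europium Kryptate-tagged human LDLR ectodomain was added for a further 2 h.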

human PCSK9, sequence (Q8NBP7 153-692): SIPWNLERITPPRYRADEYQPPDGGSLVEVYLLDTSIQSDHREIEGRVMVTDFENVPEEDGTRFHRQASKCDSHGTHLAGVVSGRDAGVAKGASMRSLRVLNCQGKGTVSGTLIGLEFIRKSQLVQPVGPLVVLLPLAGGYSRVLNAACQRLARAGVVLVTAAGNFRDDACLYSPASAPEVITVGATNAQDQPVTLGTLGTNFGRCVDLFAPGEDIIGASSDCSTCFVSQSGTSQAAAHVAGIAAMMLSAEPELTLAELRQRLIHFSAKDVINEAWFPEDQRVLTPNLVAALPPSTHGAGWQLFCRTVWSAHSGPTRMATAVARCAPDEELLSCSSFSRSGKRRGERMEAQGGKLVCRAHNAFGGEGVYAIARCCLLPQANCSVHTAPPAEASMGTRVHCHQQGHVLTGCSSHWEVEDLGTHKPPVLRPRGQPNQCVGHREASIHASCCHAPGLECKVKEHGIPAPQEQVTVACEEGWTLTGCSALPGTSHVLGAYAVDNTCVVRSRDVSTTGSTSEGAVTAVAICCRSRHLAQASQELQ
human PCSK9, sequence (Q8NBP7 31-152 partner limits assumed): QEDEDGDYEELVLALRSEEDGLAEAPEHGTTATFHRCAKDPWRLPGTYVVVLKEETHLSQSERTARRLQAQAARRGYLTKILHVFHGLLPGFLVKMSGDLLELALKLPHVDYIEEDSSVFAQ

Max % inhibition (human PCSK9) [%] | pIC50 (human PCSK9) | Structure (SMILES) | ring closure, isolated yield [1] [%]
 |  | COC[C@@H]1NC(=O)[C@H](C)N(Cc2ccc(Cl)cc2Oc2ccc(-c3cnc(CN(C)C)n3C)cc2)C(=O)C[C@@H](Cc2ccccc2)C(=O)N(C)C2CCOCC2NC(=O)C[C@H](Cc2ccc(Cl)cc2)N(C)C1=O (some centres unmarked) | 17
79.21 | 8.44 | COC[C@@H]1NC(=O)[C@H](C)N(Cc2ccc(Cl)cc2Oc2ccc(-c3cnc(CN(C)C)n3C)cc2)C(=O)C[C@@H](CC2CC2)C(=O)N(C)[C@H]2CCCC[C@@H]2NC(=O)C[C@H](Cc2ccc(Cl)cc2)N(C)C1=O [Compound 290, (4S,7S,10S,14R,16aS,20aS)-11-(4-chloro-2-(4-(2-((dimethylamino)methyl)-1-methyl-1H-imidazol-5-yl)phenoxy)benzyl)-4-(4-chlorobenzyl)-14-(cyclopropylmethyl)-7-(methoxymethyl)-5,10,16-trimethylhexadecahydrobenzo[l][1,4,7,11,14]pentaazacyclooctadecine-2,6,9,12,15(3H)-pentaone] | 
102.86 | 8.80 | COC[C@@H]1NC(=O)[C@H](CCCN(C)C)N(Cc2ccc(Cl)cc2Oc2ccc(-c3cnc(CN(C)C)n3C)cc2)C(=O)C[C@@H](Cc2ccccc2)C(=O)N(C)[C@H]2CCCC[C@@H]2NC(=O)C[C@H](Cc2ccc(Cl)cc2)N(C)C1=O [Compound 291, (4S,7S,10S,14R,16aS,20aS)-14-benzyl-11-(4-chloro-2-(4-(2-((dimethylamino)methyl)-1-methyl-1H-imidazol-5-yl)phenoxy)benzyl)-4-(4-chlorobenzyl)-10-(3-(dimethylamino)propyl)-7-(methoxymethyl)-5,16-dimethylhexadecahydrobenzo[l][1,4,7,11,14]pentaazacyclooctadecine-2,6,9,12,15(3H)-pentaone] | 
113.30 | 8.52 | COC[C@@H]1NC(=O)[C@H](C)N(Cc2ccc(Cl)cc2Oc2ccc(-n3cnc(CN(C)C)c3C)cc2)C(=O)C[C@@H](Cc2ccccc2)C(=O)N(C)[C@H]2CCCC[C@@H]2NC(=O)C[C@H](Cc2ccc(Cl)cc2)N(C)C1=O [Compound 292, (4S,7S,10S,14R,16aS,20aS)-14-benzyl-11-(4-chloro-2-(4-(4-((dimethylamino)methyl)-5-methyl-1H-imidazol-1-yl)phenoxy)benzyl)-4-(4-chlorobenzyl)-7-(methoxymethyl)-5,10,16-trimethylhexadecahydrobenzo[l][1,4,7,11,14]pentaazacyclooctadecine-2,6,9,12,15(3H)-pentaone] | 
103.68 | 9.15 | COC[C@@H]1NC(=O)[C@H](C)N(Cc2ccc(Cl)cc2Oc2ccc(-c3cnc(CN(C)C)n3C)cc2)C(=O)C[C@@H](Cc2ccc(F)c(F)c2F)C(=O)N(C)[C@@H](C)[C@H](C)NC(=O)C[C@H](Cc2ccc(Cl)cc2)N(C)C1=O [Compound 293, (2S,5S,8S,12S,13S,16R)-1-(4-chloro-2-(4-(2-((dimethylamino)methyl)-1-methyl-1H-imidazol-5-yl)phenoxy)benzyl)-8-(4-chlorobenzyl)-5-(methoxymethyl)-2,7,12,13,14-pentamethyl-16-(2,3,4-trifluorobenzyl)-1,4,7,11,14-pentaazacyclooctadecane-3,6,10,15,18-pentaone] | 
55.44 | 6.98 | COC[C@@H]1NC(=O)[C@@H](C)N(Cc2ccc(Cl)cc2Oc2ccc(-c3cnc(CN(C)C)n3C)cc2)C(=O)C[C@@H](Cc2ccccc2)C(=O)N(C)[C@H]2CCOC[C@@H]2NC(=O)C[C@H](Cc2ccc(Cl)cc2)N(C)C1=O [Compound 294, (4S,7S,10R,14R,16aS,20aR)-14-benzyl-11-(4-chloro-2-(4-(2-((dimethylamino)methyl)-1-methyl-1H-imidazol-5-yl)phenoxy)benzyl)-4-(4-chlorobenzyl)-7-(methoxymethyl)-5,10,16-trimethyltetradecahydro-1H-pyrano[3,4-l][1,4,7,11,14]pentaazacyclooctadecine-2,6,9,12,15(3H)-pentaone] | 
101.64 | 8.74 | COC[C@@H]1NC(=O)[C@H](C)N(Cc2ccc(Cl)cc2Oc2ccc(-c3cnc(CN(C)C)n3C)cc2)C(=O)C[C@@H](Cc2ccccn2)C(=O)N(C)[C@@H](C)[C@H](C)NC(=O)C[C@H](Cc2ccc(Cl)cc2)N(C)C1=O [Compound 295, (2S,5S,8S,12S,13S,16R)-1-(4-chloro-2-(4-(2-((dimethylamino)methyl)-1-methyl-1H-imidazol-5-yl)phenoxy)benzyl)-8-(4-chlorobenzyl)-5-(methoxymethyl)-2,7,12,13,14-pentamethyl-16-(pyridin-2-ylmethyl)-1,4,7,11,14-pentaazacyclooctadecane-3,6,10,15,18-pentaone] | 
98.03 | 8.92 | COC[C@@H]1NC(=O)[C@H](CCCN2CCCC2=O)N(Cc2ccc(Cl)cc2Oc2ccc(-c3cnc(CN(C)C)n3C)cc2)C(=O)C[C@@H](Cc2ccccc2)C(=O)N(C)[C@H]2CCCC[C@@H]2NC(=O)C[C@H](Cc2ccc(Cl)cc2)N(C)C1=O [Compound 296, (4S,7S,10S,14R,16aS,20aS)-14-benzyl-11-(4-chloro-2-(4-(2-((dimethylamino)-methyl)-1-methyl-1H-imidazol-5-yl)phenoxy)benzyl)-4-(4-chlorobenzyl)-7-(methoxymethyl)-5,16-dimethyl-10-(3-(2-oxopyrrolidin-1-yl)propyl)hexadecahydrobenzo[l][1,4,7,11,14]penta-azacyclooctadecine-2,6,9,12,15(3H)-pentaone] | 
99.00 | 8.70 | COC[C@@H]1NC(=O)[C@H](C)N(Cc2ccc(Cl)cc2Oc2c(F)cc(-c3cnc(CN4CCCC4)n3C)cc2F)C(=O)C[C@@H](Cc2ccccc2)C(=O)N(C)[C@@H](C)CNC(=O)C[C@H](Cc2ccc(Cl)cc2)N(C)C1=O [Compound 298, (2S,5S,8S,13S,16R)-16-benzyl-1-(4-chloro-2-(2,6-difluoro-4-(1-methyl-2-(pyrrolidin-1-ylmethyl)-1H-imidazol-5-yl)phenoxy)benzyl)-8-(4-chlorobenzyl)-5-(methoxymethyl)-2,7,13,14-tetramethyl-1,4,7,11,14-pentaazacyclooctadecane-3,6,10,15,18-pentaone] | 
95.40 | 8.48 | COC[C@@H]1NC(=O)[C@H](C)N(Cc2ccc(Cl)cc2Oc2ccc(-c3cnc(CN4CCCC4)n3C)c(F)c2F)C(=O)C[C@@H](Cc2ccccc2)C(=O)N(C)[C@@H](C)CNC(=O)C[C@H](Cc2ccc(Cl)cc2)N(C)C1=O [Compound 299, (2S,5S,8S,13S,16R)-16-benzyl-1-(4-chloro-2-(2,3-difluoro-4-(1-methyl-2-(pyrrolidin-1-ylmethyl)-1H-imidazol-5-yl)phenoxy)benzyl)-8-(4-chlorobenzyl)-5-(methoxymethyl)-2,7,13,14-tetramethyl-1,4,7,11,14-pentaazacyclooctadecane-3,6,10,15,18-pentaone] | 
80.60 | 8.68 | CCn1c(-c2ccc(Oc3cc(Cl)ccc3CN3C(=O)C[C@@H](Cc4ccccc4)C(=O)N(C)[C@@H](C)CNC(=O)C[C@H](Cc4ccc(Cl)cc4)N(C)C(=O)[C@H](COC)NC(=O)[C@@H]3C)cc2)cnc1CN1CCCC1 [Compound 300, (2S,5S,8S,13S,16R)-16-benzyl-1-(4-chloro-2-(4-(1-ethyl-2-(pyrrolidin-1-ylmethyl)-1H-imidazol-5-yl)phenoxy)benzyl)-8-(4-chlorobenzyl)-5-(methoxymethyl)-2,7,13,14-tetramethyl-1,4,7,11,14-pentaazacyclooctadecane-3,6,10,15,18-pentaone] | 
54.20 | 8.41 | COC[C@@H]1NC(=O)[C@H](C)N(Cc2ccc(Cl)cc2Oc2ccc(-c3cncc(CN4CCCC4)c3C)cc2)C(=O)C[C@@H](Cc2ccccc2)C(=O)N(C)[C@@H](C)CNC(=O)C[C@H](Cc2ccc(Cl)cc2)N(C)C1=O [Compound 301, (2S,5S,8S,13S,16R)-16-benzyl-1-(4-chloro-2-(4-(4-methyl-5-(pyrrolidin-1-ylmethyl)pyridin-3-yl)phenoxy)benzyl)-8-(4-chlorobenzyl)-5-(methoxymethyl)-2,7,13,14-tetramethyl-1,4,7,11,14-pentaazacyclooctadecane-3,6,10,15,18-pentaone] | 
54.00 | 8.46 | COC[C@@H]1NC(=O)[C@H](C)N(Cc2ccc(Cl)cc2Oc2ccc(-c3cnc4c(CN5CCCC5)cccn34)cc2)C(=O)C[C@@H](Cc2ccccc2)C(=O)N(C)[C@@H](C)CNC(=O)C[C@H](Cc2ccc(Cl)cc2)N(C)C1=O [Compound 302] | 
52.60 | 8.54 | COC[C@@H]1NC(=O)[C@H](C)N(Cc2ccc(Cl)cc2Oc2ccc(-c3cnc(CN4CCCC4)n3CCF)cc2)C(=O)C[C@@H](Cc2ccccc2)C(=O)N(C)[C@@H](C)CNC(=O)C[C@H](Cc2ccc(Cl)cc2)N(C)C1=O [Compound 303, (2S,5S,8S,13S,16R)-16-benzyl-1-(4-chloro-2-(4-(1-(2-fluoroethyl)-2-(pyrrolidin-1-ylmethyl)-1H-imidazol-5-yl)phenoxy)benzyl)-8-(4-chlorobenzyl)-5-(methoxymethyl)-2,7,13,14-tetramethyl-1,4,7,11,14-pentaazacyclooctadecane-3,6,10,15,18-pentaone] | 
88.80 | 9.22 | COC[C@@H]1NC(=O)[C@H](CCCN)N(Cc2ccc(Cl)cc2Oc2ccc(-c3cnc(CN(C)C)n3C)cc2)C(=O)C[C@@H](Cc2ccccc2)C(=O)N(C)[C@H]2CCCC[C@@H]2NC(=O)C[C@H](Cc2ccc(Cl)cc2)N(C)C1=O [Compound 304, (4S,7S,10S,14R,16aS,20aS)-10-(3-aminopropyl)-14-benzyl-11-(4-chloro-2-(4-(2-((dimethylamino)methyl)-1-methyl-1H-imidazol-5-yl)phenoxy)benzyl)-4-(4-chlorobenzyl)-7-(methoxymethyl)-5,16-dimethylhexadecahydrobenzo[l][1,4,7,11,14]pentaazacyclooctadecine-2,6,9,12,15(3H)-pentaone] | 
